Test results taken from US12226433B2, “Treatment of irritable bowel syndrome with molybdenum” (The Johns Hopkins University, priority 2018, dated 2025).

Columns and labels:
[1] = tested on: IBS mouse model; test: Visceral motor reflex (VMR) response to colorectal distention (CRD), pain sensitivity in IBS mouse model; assay type: in vivo; conditions: 0.2 ml sodium molybdate (10 mg/ml) cecal infusion for 7 days; for pain sensitivity (hyperalgesia) assessed by VMR response to CRD: IBS mice, CRD 15, 30, 50 and 70 mmHg, vs IBS-vehicle, P<0.05
Description: (§1) IBS mice were generated by colorectal infusion of 0.5% acetic acid (20 μl) at postnatal day 10. The mice were then allowed to grow up until adult. The adult IBS and control mice were undergone a surgery to insert a catheter into the cecum. The catheter made from PE10 tubing with 8 cm long. It was insert into cecum about 0.5 cm and then tunneled to the back of the mouse after sutured on the cecum wall ensuring no cecum content leaking. Then, a pair of electrodes were inserted into the external oblique (abdominal) muscle for pain sensitivity test. The mice received 0.2 ml sodium molybdate (10 mg/ml) through cecal infusion starting on the day after surgery for 7 days. One day after the last infusion, a visceral motor reflex (VMR) response to colorectal distention (CRD) was conducted to assess the pain sensitivity. A balloon was inserted into colorectum through the anus for CRD. The VMR is measured using an electromyographic (EMG) recording that response to CRD with 15, 30, 50 and 70 mmHg. To assess the microbiota, stool were collected before and after the molybdate treatment. Microbiome were examined by 16S rRNA sequencing.

[2] = tested on: Desulfovibrio; test: Stool microbiome examined by 16S rRNA sequencing before and after molybdate treatment; assay type: in vivo, mouse; conditions: molybdate treated control and IBS groups; stool before and after 7 days of cecal infusion; not reduced in saline treated groups
Description: as §1

For `[Na+].[Na+].[O]=[Mo](=[O])([O-])[O-]` [sodium molybdate], the “pain sensitivity (hyperalgesia) assessed by VMR response to CRD” value [1] was “reduced hyperalgesia”, the “pain sensitivity (hyperalgesia) assessed by VMR response to CRD” value ([1]; listed as molybdate) was “significantly reduced” and the “pain sensitivity assessed by VMR response to CRD” value ([1]; control mice, molybdate vs saline treated) was “no significant different”. The “sulfate-reducing bacteria Desulfovibrio in stool (16S rRNA sequencing)” value [2] was “reduced”.
